The record followed here is patent US7601715B2, “Process for preparing triazole substituted azaindoleoxoacetic piperazine derivatives and novel salt forms produced therein” (Bristol-Myers Squibb Company, priority 2005, dated 2009).

A short description of this series: Moisture-sorption isotherm (VTI SGA-100 Symmetric Vapor Analyzer). The format is physicochemical. The conditions noted are these: range from about 25% RH to about 75% RH at 25° C.; FIG. 8. As to the method:
10. Moisture-sorption isotherms were collected in a VTI SGA-100 Symmetric Vapor Analyzer using approximately 10 mg of sample. The sample was dried at 60° C. until the loss rate of 0.0005 wt %/min was obtained for 10 minutes. The sample was tested at 25° C. and 3 or 4, 5, 15, 25, 35, 45, 50, 65, 75, 85, and 95% RH. Equilibration at each RH was reached when the rate of 0.0003 wt %/min for 35 minutes was achieved or a maximum of 600 minutes.

In the case of `O=C(C(=O)N1CCN(C(=O)c2ccccc2)CC1)c1c[nH]c2c(-n3ccnn3)ncc(F)c12`, the “weight gain / weight water uptake (moisture-sorption isotherm)” value is “about 0.1%”.
